Results: publication PMC12775434, “Ultra-large virtual screening unveils potent agonists of the neuromodulatory orphan receptor GPR139” (Nature Communications, 2025)
“And” between values parts separate entries of the source, which are not always exact repeats. Equal entries are not always repeated.

Experiments:
Type in all cases: cell-based
[1] = biological target: T1, GPR139 (G12 activation) (Homo sapiens, UniProt Q6DWJ6); experiment: BRET G protein activation (dissociation) assay, G12, HEK293A; conditions: for G protein activation, G12: individual replicates
T1 construct: expressed in transfected cells; host or cells: HEK293A (transient, Lipofectamine 2000)
T1 sequence (Q6DWJ6 1-353): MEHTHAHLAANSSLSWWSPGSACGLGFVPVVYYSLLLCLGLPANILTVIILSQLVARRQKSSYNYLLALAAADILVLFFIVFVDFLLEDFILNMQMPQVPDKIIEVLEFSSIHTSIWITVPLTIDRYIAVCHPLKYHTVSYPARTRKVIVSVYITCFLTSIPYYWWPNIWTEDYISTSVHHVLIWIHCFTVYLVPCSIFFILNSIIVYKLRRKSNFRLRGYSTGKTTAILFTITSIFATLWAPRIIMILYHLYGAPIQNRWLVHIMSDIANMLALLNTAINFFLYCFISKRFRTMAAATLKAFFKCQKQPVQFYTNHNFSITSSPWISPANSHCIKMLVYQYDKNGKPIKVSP
Procedure, shortened: (§1)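 HEK293A cells were reverse-transfected 20–24 h before assay with GPR139, Venus-Gβ1γ2, masGRK3ct-NanoLuc and Gαq, Gαi2, Gαi3 or Gα12; the Gαq and Gα12 sets also got PTX-S1. Compounds and furimazine went on in HEPES buffer at room temperature. The 535/475 nm BRET ratio was read at 20 s (Gq), 15 s (Gi2), 10 s (Gi3) or 90 s (G12), buffer-subtracted, normalized to 10 µM JNJ-63533054, and fitted by variable-slope regression.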

[2] = biological target: T2, GPR139 (Gq activation) (Homo sapiens, UniProt Q6DWJ6); experiment: BRET G protein activation (dissociation) assay, Gq, HEK293A; conditions: for G protein activation, Gq: individual replicates
T2 construct: expressed in transfected cells; host or cells: HEK293A (transient, Lipofectamine 2000)
T2 sequence (Q6DWJ6 1-353): T1 sequence (Q6DWJ6 1-353)
Procedure, shortened: as §1

[3] = biological target: T3, GPR139 (Gi3 activation) (Homo sapiens, UniProt Q6DWJ6); experiment: BRET G protein activation (dissociation) assay, Gi3, HEK293A; conditions: for G protein activation, Gi3: individual replicates
T3 construct: expressed in transfected cells; host or cells: HEK293A (transient, Lipofectamine 2000)
T3 sequence (Q6DWJ6 1-353): T1 sequence (Q6DWJ6 1-353)
Procedure, shortened: as §1

[4] = biological target: T4, GPR139 (GoA activation) (Homo sapiens, UniProt Q6DWJ6); experiment: BRET G protein activation (dissociation) assay, GoA, HEK293A; conditions: for G protein activation, GoA: individual replicates
T4 construct: expressed in transfected cells; host or cells: HEK293A (transient, Lipofectamine 2000)
T4 sequence (Q6DWJ6 1-353): T1 sequence (Q6DWJ6 1-353)
Procedure, shortened: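 HEK293A cells were reverse transfected 20–24 h beforehand with GPR139, Venus 1-155 Gγ2, Venus 159-239 Gβ1, masGRK3ct-NanoLuc and 12.6 ng GαoA using Lipofectamine 2000. Cells were plated at 50,000 per well in poly-D-lysine-coated white 96-well plates. After washing in HEPES buffer, compounds and 1000-fold diluted furimazine were added. The 535 nm/475 nm BRET ratio was read at 15 s and corrected for buffer basal.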

[5] = HEK293-A, normalized to JNJ-63533054 (JNJ(S))

- Emax [1, 5]: 48 ± 3%
- EC50 ([1]; Supplementary Table 6, read-out: pEC50 G12 (converted)): 3.98 µM
- Emax [2, 5]: 22 ± 8%
- EC50 ([2]; Supplementary Table 6): 10 µM
- Emax [3, 5]: 35 ± 6%
- EC50 ([3]; Supplementary Table 6, read-out: pEC50 Gi3 (converted)): 3.98 µM
- Emax [4, 5]: 79 ± 1%
- EC50 ([4]; Supplementary Table 6): 5.01 µM
SMILES: C[C@@H](NC(=O)CNC(=O)c1cccc(Cl)c1)c1ccccc1 [JNJ(R), reference compound]
- G protein activation, G12 ([1]; log [compound] M -4.5): 45 % of JNJ-63533054 at Gi2 and 42 % of JNJ-63533054 at Gi2 and 41 % of JNJ-63533054 at Gi2
- G protein activation, G12 ([1]; log [compound] M -5.0): 37 % of JNJ-63533054 at Gi2 and 34 % of JNJ-63533054 at Gi2 and 33 % of JNJ-63533054 at Gi2
- G protein activation, G12 ([1]; log [compound] M -5.5): 24 % of JNJ-63533054 at Gi2 (2×) and 19 % of JNJ-63533054 at Gi2
- G protein activation, G12 ([1]; log [compound] M -6.0): 13 % of JNJ-63533054 at Gi2 and 11 % of JNJ-63533054 at Gi2 and 9 % of JNJ-63533054 at Gi2
- G protein activation, G12 ([1]; log [compound] M -6.5): 7 % of JNJ-63533054 at Gi2 and 5 % of JNJ-63533054 at Gi2 and 2.85 % of JNJ-63533054 at Gi2
- G protein activation, G12 ([1]; log [compound] M -7.0): 1.33 % of JNJ-63533054 at Gi2 and 4 % of JNJ-63533054 at Gi2 and 0.154 % of JNJ-63533054 at Gi2
- G protein activation, G12 ([1]; log [compound] M -7.5): 0.474 % of JNJ-63533054 at Gi2 and 6 % of JNJ-63533054 at Gi2 and 1.7 % of JNJ-63533054 at Gi2
- G protein activation, G12 ([1]; log [compound] M -8.0): -0.892 % of JNJ-63533054 at Gi2 and 6 % of JNJ-63533054 at Gi2 and 2.38 % of JNJ-63533054 at Gi2
- G protein activation, Gq ([2]; log [compound] M -4.5): 17 % of JNJ-63533054 at Gi2 and 24 % of JNJ-63533054 at Gi2 and 7.59 % of JNJ-63533054 at Gi2
- G protein activation, Gq ([2]; log [compound] M -5.0): 12 % of JNJ-63533054 at Gi2 and 15 % of JNJ-63533054 at Gi2 and 4 % of JNJ-63533054 at Gi2
- G protein activation, Gq ([2]; log [compound] M -5.5): 8 % of JNJ-63533054 at Gi2 and 7 % of JNJ-63533054 at Gi2 and -2.15 % of JNJ-63533054 at Gi2
- G protein activation, Gq ([2]; log [compound] M -6.0): 6.62 % of JNJ-63533054 at Gi2 and 3 % of JNJ-63533054 at Gi2 and -1.3 % of JNJ-63533054 at Gi2
- G protein activation, Gq ([2]; log [compound] M -6.5): 3.64 % of JNJ-63533054 at Gi2 and 0.578 % of JNJ-63533054 at Gi2 and -0.535 % of JNJ-63533054 at Gi2
- G protein activation, Gq ([2]; log [compound] M -7.0): 0.442 % of JNJ-63533054 at Gi2 and -1.25 % of JNJ-63533054 at Gi2 and -2 % of JNJ-63533054 at Gi2
- G protein activation, Gq ([2]; log [compound] M -7.5): 0.442 % of JNJ-63533054 at Gi2 and 0.122 % of JNJ-63533054 at Gi2 and 2.16 % of JNJ-63533054 at Gi2
- G protein activation, Gq ([2]; log [compound] M -8.0): -2 % of JNJ-63533054 at Gi2 and -0.213 % of JNJ-63533054 at Gi2 and 1.37 % of JNJ-63533054 at Gi2
- G protein activation, Gi3 ([3]; log [compound] M -4.5): 36 % of JNJ-63533054 at Gi2 and 21 % of JNJ-63533054 at Gi2 and 35 % of JNJ-63533054 at Gi2
- G protein activation, Gi3 ([3]; log [compound] M -5.0): 29 % of JNJ-63533054 at Gi2 and 16 % of JNJ-63533054 at Gi2 and 28 % of JNJ-63533054 at Gi2
- G protein activation, Gi3 ([3]; log [compound] M -5.5): 20 % of JNJ-63533054 at Gi2 and 7 % of JNJ-63533054 at Gi2 and 23 % of JNJ-63533054 at Gi2
- G protein activation, Gi3 ([3]; log [compound] M -6.0): 11 % of JNJ-63533054 at Gi2 (2×) and 4 % of JNJ-63533054 at Gi2
- G protein activation, Gi3 ([3]; log [compound] M -6.5): 5.48 % of JNJ-63533054 at Gi2 and -1.21 % of JNJ-63533054 at Gi2 and 3.19 % of JNJ-63533054 at Gi2
- G protein activation, Gi3 ([3]; log [compound] M -7.0): 3.32 % of JNJ-63533054 at Gi2 and -6 % of JNJ-63533054 at Gi2 and 6 % of JNJ-63533054 at Gi2
- G protein activation, Gi3 ([3]; log [compound] M -7.5): 3 % of JNJ-63533054 at Gi2 and -5 % of JNJ-63533054 at Gi2 and 7.51 % of JNJ-63533054 at Gi2
- G protein activation, Gi3 ([3]; log [compound] M -8.0): -1 % of JNJ-63533054 at Gi2 and -3.25 % of JNJ-63533054 at Gi2 and 5 % of JNJ-63533054 at Gi2
- G protein activation, GoA ([4]; log [compound] M -4.5): 73 % of JNJ-63533054 at Gi2 and 70 % of JNJ-63533054 at Gi2 and 62 % of JNJ-63533054 at Gi2
- G protein activation, GoA ([4]; log [compound] M -5.0): 58 % of JNJ-63533054 at Gi2 and 53 % of JNJ-63533054 at Gi2 and 47 % of JNJ-63533054 at Gi2
- G protein activation, GoA ([4]; log [compound] M -5.5): 37 % of JNJ-63533054 at Gi2 and 33 % of JNJ-63533054 at Gi2 and 28 % of JNJ-63533054 at Gi2
- G protein activation, GoA ([4]; log [compound] M -6.0): 16 % of JNJ-63533054 at Gi2 and 13 % of JNJ-63533054 at Gi2 and 14 % of JNJ-63533054 at Gi2
- G protein activation, GoA ([4]; log [compound] M -6.5): 5.7 % of JNJ-63533054 at Gi2 and 1.59 % of JNJ-63533054 at Gi2 and 5.63 % of JNJ-63533054 at Gi2
- G protein activation, GoA ([4]; log [compound] M -7.0): -0.263 % of JNJ-63533054 at Gi2 and -1.74 % of JNJ-63533054 at Gi2 and 2.49 % of JNJ-63533054 at Gi2
- G protein activation, GoA ([4]; log [compound] M -7.5): -1.44 % of JNJ-63533054 at Gi2 and 0.514 % of JNJ-63533054 at Gi2 and 0.72 % of JNJ-63533054 at Gi2
- G protein activation, GoA ([4]; log [compound] M -8.0): -1.46 % of JNJ-63533054 at Gi2 and -2.26 % of JNJ-63533054 at Gi2 and 3.8 % of JNJ-63533054 at Gi2
